Results as given in PubChem BioAssay (NCI).
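1) Cells in 96-well plates. 2) Compound, 48 h, 5 concentrations. 3) Linear interpolation between surrounding doses. 4) Unreached endpoint = highest concentration. The concentration for full growth arrest is given as TGI.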

Legend:
Assay in all cases: DTP human tumour cell line panel, 48 h
LXFL 529 NSCLC = tested on: LXFL 529 NSCLC
HCT-116 colon = tested on: HCT-116 colon
COLO 205 colon = tested on: COLO 205 colon
EKVX NSCLC = tested on: EKVX NSCLC
HOP-18 NSCLC = tested on: HOP-18 NSCLC
MDA-MB-231 breast = tested on: MDA-MB-231 breast
ACHN renal = tested on: ACHN renal
A549 NSCLC = tested on: A549 NSCLC
DMS 273 small cell lung = tested on: DMS 273 small cell lung
MDA-MB-435 = tested on: MDA-MB-435

**Q.** With Cc1ccccc1Nc1nc2c(s1)C(=O)c1ccccc1C2=O as the compound, how does the TGI (LXFL 529 NSCLC) read?
**A.** 14.8 µM

**Q.** And the TGI (HCT-116 colon)?
**A.** 6.66 µM

**Q.** What about the TGI (COLO 205 colon) of the same compound?
**A.** 34.7 µM

**Q.** And the TGI (EKVX NSCLC)?
**A.** 21 µM

**Q.** What about the TGI (HOP-18 NSCLC) of the same compound?
**A.** 24.9 µM

**Q.** What about the TGI (MDA-MB-231 breast) of the same compound?
**A.** 15 µM

**Q.** And the TGI (ACHN renal)?
**A.** 14.6 µM

**Q.** And the TGI (A549 NSCLC)?
**A.** 27.9 µM

**Q.** What about the TGI (DMS 273 small cell lung) of the same compound?
**A.** 21.4 µM

**Q.** Cc1cc2c(Br)cc(Br)c(O)c2nc1C(=O)c1ccccc1 was tested. Which TGI (LXFL 529 NSCLC) did it give?
**A.** 80.6 µM

**Q.** What about the TGI (HCT-116 colon) of the same compound?
**A.** > 72.8 µM

**Q.** What about the TGI (COLO 205 colon) of the same compound?
**A.** 55.7 µM

**Q.** What about the TGI (EKVX NSCLC) of the same compound?
**A.** > 100 µM

**Q.** And the TGI (MDA-MB-435)?
**A.** > 100 µM

**Q.** What about the TGI (HOP-18 NSCLC) of the same compound?
**A.** 70.4 µM

**Q.** And the TGI (MDA-MB-231 breast)?
**A.** 78.5 µM

**Q.** And the TGI (ACHN renal)?
**A.** > 100 µM

**Q.** What about the TGI (A549 NSCLC) of the same compound?
**A.** > 100 µM

**Q.** And the TGI (DMS 273 small cell lung)?
**A.** 42.3 µM
